Assay results: paper PMC4488731 (Viruses, 2015)

Molecular target: T1, EV-A71 2A protease (r2A protease) (Enterovirus A71, UniProt B9VUU3)
T1 sequence (B9VUU3 863-1012 limits assumed): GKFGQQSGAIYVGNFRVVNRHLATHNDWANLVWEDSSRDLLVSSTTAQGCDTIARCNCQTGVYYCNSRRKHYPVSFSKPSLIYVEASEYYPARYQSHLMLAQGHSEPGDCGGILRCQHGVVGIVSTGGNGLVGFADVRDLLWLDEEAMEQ
Assay type: biochemical
Conditions: 37 °C, 2 h, 5 µg/mL r2A, 10 µg/mL HRP substrate

`CCOC(=O)C1=C(Nc2cc(C)cc(C)c2)OCC1=O` [CW-33, Ethyl 2-(3′,5′-dimethylanilino)-4-oxo-4,5-dihydrofuran-3-carboxylate] was tested, and the IC50 was 53.1 µM.
